Reference: patent US20220177490A1, “COMPOUNDS HAVING BOTH EFFECTS OF BET BROMODOMAIN PROTEIN INHIBITION AND PD-L1 GENE REGULATION” (priority 2019, published 2022)
Like-named read-outs stand apart in the source and are kept apart here. One block for each compound: values may come before it.

Assays:
[1] = target: T1, BRD4-2 (BRD4 BD2) (Homo sapiens, UniProt O60885); experiment: AlphaScreen binding assay of BRD4 biochemical activity (BD2); settings: BD2, second value of cell; 10 concentrations, single well, initial 10 μM, 3-fold dilution
T1 construct: BRD4 (BD1, BD2)
Description: (§1) Test 1: IC50 characterization of the compounds at 10 concentrations.
(§2) The compounds were evaluated for IC50 against two BRD (BRD4-1, BRD4-2) at 10 concentrations, single well.
(§3) Buffer composition for BRD: 50 mM HEPES-HCl, pH7.5, 100 mM NaCl, 0.1% BSA, 0.05% CHAPS, and 1% DMSO.
(§4) Assay: AlphaScreen binding assay (Ex/Em=680/520-620 nm)
(§5) 2.1 4×BRD was added into wells of a reaction plate, except for control wells without BRD, in which BRD was replaced with a buffer.
(§6) 2.2 A solution of the compounds in 100% DMSO was added to the BRD mixture using Acoustic Technology (Echo550, nanoliter level). The mixture was centrifuged, shaken gently at room temperature, and pre-incubated for 30 minutes.
(§7) 2.3 4× ligand was added, and the mixture was centrifuged and shaken.
(§8) 2.4 The mixture was shaken gently and incubated at room temperature for 30 minutes.
(§9) 2.5 4× donor beads were added in the dark, and the mixture was centrifuged and shaken.
(§10) 2.6 4× acceptor beads were added in the dark, and the mixture was centrifuged and shaken gently in the dark for 60 minutes.
(§11) 2.7 The Alpha assay was carried out using Enspire (Ex/Em=680/520-620 nm)
(§12) The four-parameter fitting was performed by GraphPadPrism4 software using the following formula to obtain an IC50 fitting curve:
(§13) Y=minimum+(maximum−minimum)/(1+10^((Log IC50−X)*HillSplope))
(§14) Prism settings: 4-parameter dose-response curve (with variable slope), constrained; minimum=0, maximum=less than 120

[2] = target: T2, BRD4-1 (BRD4 BD1) (Homo sapiens, UniProt O60885); experiment: AlphaScreen binding assay of BRD4 biochemical activity (BD1); settings: BD1, first value of cell; 10 concentrations, single well, initial 10 μM, 3-fold dilution
T2 construct: BRD4 (BD1, BD2)
Description: as §1, §2, §3, §4, §5, §6, §7, §8, §9, §10, §11, §12, §13, §14

[3] = tested on: Mouse colon cancer MC38 cells; experiment: In vivo efficacy in transplanted tumor model of MC38 mouse colon cancer cells; settings: C57BL/6 mice, 18 days of administration
Description: Mouse colon cancer MC38 cells (Art. No. HYC3401) were cultured in vitro in single layer under the conditions of DMEM containing 10% fetal bovine serum and 37° C. 5% CO2 incubator. Trypsin-EDTA was used for routine digestion and passage. When the cells were in exponential growth phase and the saturation was 80%-90%, the cells were collected and counted.
Cells were re-suspended in DPBS at a density of […]. 0.1 mL DPBS (containing 2×10^5 MC38 cells) was subcutaneously inoculated into the right back of each mouse. When average tumor volume reached ˜63 mm^3, mice were randomly grouped and administered according to tumor volume.
Tumor diameter was measured with vernier caliper three times a week. The calculation formula of tumor volume was as follows: V=0.5×a×b^2, wherein a and b indicated the long and short diameters of a tumor, respectively.
The anti-tumor effect of the compounds was evaluated using TGI (%) or relative tumor proliferation rate T/C (%). Relative tumor proliferation rate T/C (%)=TRTV;/CRTV×100 (TRTV: average RTV for treatment group; CRTV: average RTV for negative control group). According to the results of tumor measurement, relative tumor volume (RTV) was calculated using the formula: RTV=Vt/V0, wherein V0 is the tumor volume measured when grouped and administered (i.e., D0), Vt is the tumor volume at a certain measurement, and the data of TRTV and CRTV on the same day were used.
TGI (%) reflects the rate of tumor growth inhibition. TGI (%)=[(1−(Average tumor volume at the end of administration for a treatment group−Average tumor volume at the beginning of administration for the treatment group))/(Average tumor volume at the end of treatment for a vehicle control group-Average tumor volume at the beginning of treatment for the vehicle control group)]×100.
Statistical analysis was performed using SPSS software based on the relative tumor volume and tumor weight at the end of the test. T-test was used for comparison between two groups and one-way ANOVA was used for comparison among three or more groups. If variance was not neat (significant difference was found in F value), Games-Howell method was used for test. P<0.05 was considered a significant difference.

[4] = tested on: EMT-6 mouse breast cancer cell line; experiment: Anti-tumor activity in EMT-6 in vivo tumor model; settings: EMT-6 model, BALB/C mice, 30 mg/kg intragastrically
Description: The anti-tumor effect of the test compound was investigated on an in vivo tumor model of mouse breast cancer EMT-6.
Female BALB/C mice were subcutaneously inoculated with an EMT-6 mouse breast cancer cell line, grouped according to body weight and tumor volume on the 8th day after inoculation, and administered as described below.
(§15) Group 1 (control group): Vehicle control was administered intragastrically at a dose of 0.1 mL/10 g body weight twice a day.
(§16) Group 2: Compound 4 dissolved in (5% DMSO+40% PEG 400+10% Solutol+45% DDH2O) was administered intragastrically at a dose of 30 mg/kg body weight.
(§17) During the assay, the body weight and tumor volume of mice were measured three times a week, and the tumor volume was calculated according to the formula of length×width^2/2. The tumor proliferation rate and tumor inhibition rate were calculated according to the formula: tumor proliferation rate=tumor volume of treatment group/tumor volume of control group×100%; tumor inhibition rate=(tumor volume of control group-tumor volume of treatment group)/tumor volume of control group.
(§18) Student's t-test was used for statistical analysis between groups, and p<0.05 indicated significant difference.

[5] = Pharmacokinetic study in male CD-1 mice, LC/MS/MS of plasma; assay type: in vivo; settings: mouse; for Vd: read-out: Apparent volume of distribution Vdss; for AUC(0-inf): read-out: Area under curve (0-inf) AUC0-inf; for AUC(0-t): read-out: Area under curve (0-t) AUC0-last; for clearance: read-out: Clearance rate Cl; for half-life: read-out: Half life period T½ (converted); for Cmax: read-out: Drug concentration in blood Cmax; for Tmax: read-out: Peak arrival time Tmax; for bioavailability: read-out: bioavailability F
Description: 1.1 Male CD-1 mice were used as test animals, and the LC/MS/MS method was used to determine the drug concentration in plasma of mice at different times after intravenous and intragastric administration of the test compounds. The pharmacokinetic behavior of the compounds of the present disclosure in mice was studied, and the pharmacokinetic characteristics of the compounds of the present disclosure were evaluated.
2.2 Assay animals: Eight healthy adult male CD-1 mice, which were divided into four groups (two for each group) according to the principle of similar body weight. The animals were purchased from Shanghai Sippe-Bk Lab Animal Co., Ltd., with animal production license No. of SCXK (Shanghai) 2018-0006.
A proper amount of samples were weighed, to which a solvent was added. The mixture was stirred with ultrasound to a clear state for intravenous administration.
A proper amount of samples were weighed, to which a solvent was added. The mixture was stirred with ultrasound to a clear state for intragastric administration.
Eight male CD-1 mice were divided into four groups. After one-night fasting, two groups were administered intravenously, and the remaining two groups were administered intragastrically.
After intravenous administration of the test compounds to male CD-1 mice, […] of blood was collected at 0.0833, 0.25, 0.5, 1, 2, 4, 8, and 24 hours, and placed in commercial tubes containing EDTA-K2. After intragastric administration of the test compounds, […] of blood was collected at 0.25, 0.5, 1, 2, 4, 6, 8, and 24 hours, and placed in commercial tubes containing EDTA-K2. The tubes were centrifuged at 3000 g for 15 minutes to separate plasma and stored at −60° C. Animals were fed 2 hours after the administration.
The LC/MS/MS method was used to determine the content of the test compounds in the plasma of mice after intravenous and intragastric administration. The linear range of the method was 2.00-6000 nmol/L; The plasma samples were analyzed after protein precipitation with acetonitrile.

[6] = tested on: PAN02 mouse pancreatic cancer cell line; experiment: In vivo efficacy in PAN02 tumor model; settings: C57BL/6 mice, 30 mg/kg intragastrically, day 32
Description: The anti-tumor effect of the test compound was investigated on an in vivo tumor model of mouse pancreatic cancer PAN02.
Female C57BL/6 mice were subcutaneously inoculated with PAN02 mouse pancreatic cancer cell line, grouped according to body weight and tumor volume on the 8th day after inoculation, and administered as described below.
as §15, §16
as §17, with “group−tumor” for “group-tumor”
as §18

IC50 [1]: 0.00356 µM
IC50 [2]: 0.027 µM
SMILES: COCCO/N=C1\OCc2cc(NC(=O)C[C@@H]3N=C(c4ccc(Cl)cc4)c4c(sc(C)c4C)-n4c(C)nnc43)ccc21 [Compound 10]

IC50 [1]: 0.00623 µM
IC50 [2]: 0.0482 µM
SMILES: Cc1sc2c(c1C)C(c1ccc(Cl)cc1)=N[C@@H](CC(=O)Nc1ccc3c(c1)CO/C3=N\C#N)c1nnc(C)n1-2 [Compound 2]

IC50 [1]: 0.007 µM
IC50 [2]: 0.0436 µM
SMILES: CCO/N=C1\OCc2cc(NC(=O)C[C@@H]3N=C(c4ccc(Cl)cc4)c4c(sc(C)c4C)-n4c(C)nnc43)ccc21 [Compound 9]

IC50 [1]: 0.00606 µM
IC50 [2]: 0.0287 µM
SMILES: Cc1sc2c(c1C)C(c1ccc(Cl)cc1)=N[C@@H](CC(=O)Nc1ccc3c(c1)CO/C3=N\C1COC1)c1nnc(C)n1-2 [Compound 7]

IC50 [1]: 0.00199 µM
IC50 [2]: 0.0181 µM
SMILES: Cc1sc2c(c1C)C(c1ccc(Cl)cc1)=N[C@@H](CC(=O)Nc1ccc3c(c1)Cn1ccnc1-3)c1nnc(C)n1-2 [Compound 12]

IC50 [1]: 0.00445 µM
IC50 [2]: 0.027 µM
SMILES: Cc1sc2c(c1C)C(c1ccc(Cl)cc1)=N[C@@H](CC(=O)Nc1ccc3c(c1)CC1CON=C31)c1nnc(C)n1-2 (some centres unmarked) [Compound 3]

IC50 [1]: 0.015 µM
IC50 [2]: 0.0857 µM
SMILES: Cc1sc2c(c1C)C(c1ccc(Cl)cc1)=N[C@@H](CC(=O)Nc1ccc3c(c1)CO/C3=N\OC(C)C)c1nnc(C)n1-2 [Compound 8]

IC50 [1]: 0.0074 µM
IC50 [2]: 0.0488 µM
SMILES: Cc1sc2c(c1C)C(c1ccc(Cl)cc1)=N[C@@H](CC(=O)Nc1ccc3c(c1)CO/C3=N\O)c1nnc(C)n1-2 [Compound 1]

IC50 [1]: 0.00226 µM
IC50 [2]: 0.0131 µM
SMILES: Cc1sc2c(c1C)C(c1ccc(Cl)cc1)=N[C@@H](CC(=O)Nc1ccc3c(c1)CO/C3=N\N(C)C)c1nnc(C)n1-2 [Compound 13]

SMILES: CO/N=C1\OCc2cc(NC(=O)C[C@@H]3N=C(c4ccc(Cl)cc4)c4c(sc(C)c4C)-n4c(C)nnc43)ccc21 [Compound 4]
TGI ([3]; 20 mpk p.o. BID): 85.90%
TGI ([3]; 50 mpk p.o. BID): 97.66%
IC50 [1]: 0.0066 µM
tumor proliferation rate ([4]; Day 19): 23.92%
tumor proliferation rate ([4]; end of the assay): 36.79%
Vd ([5]; intravenous, 1 mg/kg): 1.84 L/kg
AUC(0-inf) ([5]; intravenous, 1 mg/kg): 2.91 µM·h
AUC(0-t) ([5]; intravenous, 1 mg/kg): 2.71 µM·h
clearance ([5]; intravenous, 1 mg/kg): 10.2 mL/min/kg
half-life ([5]; intravenous, 1 mg/kg): 2.05 h
AUC(0-t) ([5]; po, intragastric, 2 mg/kg): 1.61 µM·h
Cmax ([5]; po, intragastric, 2 mg/kg): 262 nM
Tmax ([5]; po, intragastric, 2 mg/kg): 4 h
bioavailability ([5]; po, intragastric, 2 mg/kg): 29.6%
tumor proliferation rate [6]: 37.61%
IC50 [2]: 0.028 µM

SMILES: Cc1sc2c(c1C)C(c1ccc(Cl)cc1)=N[C@@H](CC(=O)Nc1ccc3c(c1)CO/C3=N\OC(F)F)c1nnc(C)n1-2 [Compound 11]
TGI ([3]; 20 mpk p.o. BID): 54.16%
TGI ([3]; 50 mpk p.o. BID): 84.11%
IC50 [1]: 0.00392 µM
Vd ([5]; intravenous, 1 mg/kg): 2.21 L/kg
AUC(0-inf) ([5]; intravenous, 1 mg/kg): 2.44 µM·h
AUC(0-t) ([5]; intravenous, 1 mg/kg): 2.26 µM·h
clearance ([5]; intravenous, 1 mg/kg): 11.5 mL/min/kg
half-life ([5]; intravenous, 1 mg/kg): 2.16 h
AUC(0-t) ([5]; po, intragastric, 2 mg/kg): 1.31 µM·h
Cmax ([5]; po, intragastric, 2 mg/kg): 115 nM
Tmax ([5]; po, intragastric, 2 mg/kg): 7 h
bioavailability ([5]; po, intragastric, 2 mg/kg): 29%
IC50 [2]: 0.0722 µM
